# “And” between values parts separate entries of the source, which are not always exact repeats. Identical values can stand only once. Like-named read-outs stand apart in the source and are kept apart here.
# Columns and labels:
# Human full-length ERα = biological target: T1, Human full-length ERα (Homo sapiens, UniProt P03372); experiment: ERα cell-based luciferase reporter assay, agonist mode; conditions: for EC50: Table 8, second library, read-out: ERα agonism EC50
# T1 construct: expression vector encoding human full-length ERα or ERβ; expressed in transfected cells; host or cells: HEK293, transiently transfected
# T1 sequence (P03372 1-595): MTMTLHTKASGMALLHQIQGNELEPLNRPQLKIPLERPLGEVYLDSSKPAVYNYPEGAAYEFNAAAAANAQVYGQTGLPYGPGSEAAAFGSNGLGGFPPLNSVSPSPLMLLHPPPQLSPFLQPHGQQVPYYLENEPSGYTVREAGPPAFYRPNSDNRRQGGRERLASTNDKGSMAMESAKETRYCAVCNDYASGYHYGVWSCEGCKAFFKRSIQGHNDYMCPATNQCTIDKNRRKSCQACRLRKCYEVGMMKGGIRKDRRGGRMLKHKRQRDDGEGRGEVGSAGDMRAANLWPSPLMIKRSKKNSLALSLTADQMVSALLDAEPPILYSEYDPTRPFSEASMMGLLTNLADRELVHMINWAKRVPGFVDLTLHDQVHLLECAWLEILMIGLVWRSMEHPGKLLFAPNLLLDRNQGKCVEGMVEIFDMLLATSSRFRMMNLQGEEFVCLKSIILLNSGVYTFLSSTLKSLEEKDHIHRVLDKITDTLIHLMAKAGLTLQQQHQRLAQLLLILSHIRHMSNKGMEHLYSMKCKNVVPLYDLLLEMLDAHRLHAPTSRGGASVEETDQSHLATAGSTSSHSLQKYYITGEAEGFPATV
# Method: (§1) The selectivity and potency of the various compounds was carried out via in vitro testing in ERα and ERβ cell-based reporter assays. The activity of the selected compounds was determined in the cell-based reporter assays in HEK293 cells.
# (§2) The HEK293 cells were propagated in a monolayer in phenol red-free DMEM supplemented with 10% fetal bovine serum, 2 mM Glutamax and penicillin/streptomycin (Thermo Fisher Scientific, MA, USA) and incubated in a 5% CO2 humidified atmosphere at 37° C. Right before transfection, the growth medium was changed to phenol red-free DMEM supplemented with 4% HyClone Fetal Bovine Serum, Charcoal/Dextran Treated (GE Healthcare Life Sciences, USA) and 2 mM Glutamax (starvation medium). The cells were transfected with the expression vector encoding human full-length ERα or ERβ and with the reporter vector containing 3 repeats of estrogen responsive elements (ERE) followed by the minimal thymidine kinase promoter from the herpes simplex virus in the pGL4 vector (Promega, USA). Luciferase served as a reporter gene. The transfection was carried out in 10 cm dishes (Nunc) in the starvation medium. After 24 hours, the cells were trypsinized, counted and seeded to cell culture treated, white, solid 1536-well plates (Corning Inc., NY, USA) at 1500 cells/well in 4 μl of total media volume. The compounds to be tested were diluted in DMSO and transferred to the cells using an acoustic dispenser Echo 520 (Labcyte). The compounds were tested at least at 12 different concentration points in the range from […] to 100 μM, in triplicates. Luciferase activity was determined after 24 hours of incubation with compounds with Britelite plus luciferase reporter gene assay reagent (Perkin Elmer, USA), according to the manufacturer protocol. The luciferase signal was measured on an Envison multimode plate reader (Perkin Elmer, USA). Data were collected and processed using an in-house built LIMS system ScreenX and GraphPad Prism software. EC50 values were calculated using a regression function (dose response, variable slope).
# (§3) The selectivity and potency of various example compounds in the second library was carried out via in vitro testing in ERα and ERβ cell-based reporter assays.
# Human full-length ERβ = biological target: T2, Human full-length ERβ (Homo sapiens, UniProt Q92731); experiment: ERβ cell-based luciferase reporter assay, agonist mode
# T2 construct: expression vector encoding human full-length ERα or ERβ; expressed in transfected cells; host or cells: HEK293, transiently transfected
# T2 sequence (Q92731 whole entry): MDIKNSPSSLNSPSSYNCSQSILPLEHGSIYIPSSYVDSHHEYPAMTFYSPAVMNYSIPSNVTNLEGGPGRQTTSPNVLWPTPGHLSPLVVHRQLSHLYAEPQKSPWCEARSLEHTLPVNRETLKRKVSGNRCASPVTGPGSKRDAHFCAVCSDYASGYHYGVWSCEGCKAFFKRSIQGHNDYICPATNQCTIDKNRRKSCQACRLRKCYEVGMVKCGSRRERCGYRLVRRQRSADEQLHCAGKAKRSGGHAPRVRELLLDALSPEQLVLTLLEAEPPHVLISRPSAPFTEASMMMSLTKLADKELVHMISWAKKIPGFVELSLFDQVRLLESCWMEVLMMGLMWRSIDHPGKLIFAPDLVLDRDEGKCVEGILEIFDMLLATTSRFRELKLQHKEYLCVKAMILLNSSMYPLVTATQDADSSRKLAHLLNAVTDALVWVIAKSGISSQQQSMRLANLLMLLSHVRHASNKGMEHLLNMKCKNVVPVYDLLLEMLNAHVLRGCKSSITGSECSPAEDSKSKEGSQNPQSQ
# Method: as §1, §2, §3
# Human full-length AR = biological target: T3, Human full-length AR (Homo sapiens, UniProt P10275); experiment: AR cell-based luciferase reporter assay, agonist and antagonist mode; conditions: U2OS stable reporter cells; antagonist mode with 2 nM DHT; concentration range tested 100 μM to 100 μM (so in the source)
# T3 sequence (P10275 1-920): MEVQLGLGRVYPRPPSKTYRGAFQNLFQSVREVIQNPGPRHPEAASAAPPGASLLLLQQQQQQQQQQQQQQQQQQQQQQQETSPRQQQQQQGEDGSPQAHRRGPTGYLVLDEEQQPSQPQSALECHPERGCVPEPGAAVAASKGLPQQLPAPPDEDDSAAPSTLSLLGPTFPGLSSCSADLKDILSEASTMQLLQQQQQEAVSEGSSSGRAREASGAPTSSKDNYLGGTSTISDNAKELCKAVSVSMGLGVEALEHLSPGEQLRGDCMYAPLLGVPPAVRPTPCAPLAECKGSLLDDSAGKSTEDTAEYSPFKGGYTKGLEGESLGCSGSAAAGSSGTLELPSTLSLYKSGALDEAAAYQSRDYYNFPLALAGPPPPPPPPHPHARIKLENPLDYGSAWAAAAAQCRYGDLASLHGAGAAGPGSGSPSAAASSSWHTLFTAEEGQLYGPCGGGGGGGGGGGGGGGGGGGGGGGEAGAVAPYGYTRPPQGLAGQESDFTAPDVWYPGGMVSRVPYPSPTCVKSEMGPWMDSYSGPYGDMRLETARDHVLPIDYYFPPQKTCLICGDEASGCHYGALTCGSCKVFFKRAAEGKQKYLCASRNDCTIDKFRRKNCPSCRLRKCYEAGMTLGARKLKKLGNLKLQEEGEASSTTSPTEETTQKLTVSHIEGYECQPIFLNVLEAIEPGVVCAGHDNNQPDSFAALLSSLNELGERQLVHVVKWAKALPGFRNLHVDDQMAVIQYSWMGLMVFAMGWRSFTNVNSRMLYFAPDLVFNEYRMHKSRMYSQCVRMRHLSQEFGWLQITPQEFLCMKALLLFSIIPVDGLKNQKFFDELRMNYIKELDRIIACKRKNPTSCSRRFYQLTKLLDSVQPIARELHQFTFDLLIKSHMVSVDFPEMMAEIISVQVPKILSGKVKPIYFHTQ
# Human full-length GR = biological target: T4, Human full-length GR (Homo sapiens, UniProt P04150); experiment: GR cell-based luciferase reporter assay, agonist and antagonist mode; conditions: U2OS stable reporter cells; antagonist mode with 10 nM dexamethasone; concentration range tested 100 μM to 100 μM (so in the source)
# T4 sequence (P04150 1-777): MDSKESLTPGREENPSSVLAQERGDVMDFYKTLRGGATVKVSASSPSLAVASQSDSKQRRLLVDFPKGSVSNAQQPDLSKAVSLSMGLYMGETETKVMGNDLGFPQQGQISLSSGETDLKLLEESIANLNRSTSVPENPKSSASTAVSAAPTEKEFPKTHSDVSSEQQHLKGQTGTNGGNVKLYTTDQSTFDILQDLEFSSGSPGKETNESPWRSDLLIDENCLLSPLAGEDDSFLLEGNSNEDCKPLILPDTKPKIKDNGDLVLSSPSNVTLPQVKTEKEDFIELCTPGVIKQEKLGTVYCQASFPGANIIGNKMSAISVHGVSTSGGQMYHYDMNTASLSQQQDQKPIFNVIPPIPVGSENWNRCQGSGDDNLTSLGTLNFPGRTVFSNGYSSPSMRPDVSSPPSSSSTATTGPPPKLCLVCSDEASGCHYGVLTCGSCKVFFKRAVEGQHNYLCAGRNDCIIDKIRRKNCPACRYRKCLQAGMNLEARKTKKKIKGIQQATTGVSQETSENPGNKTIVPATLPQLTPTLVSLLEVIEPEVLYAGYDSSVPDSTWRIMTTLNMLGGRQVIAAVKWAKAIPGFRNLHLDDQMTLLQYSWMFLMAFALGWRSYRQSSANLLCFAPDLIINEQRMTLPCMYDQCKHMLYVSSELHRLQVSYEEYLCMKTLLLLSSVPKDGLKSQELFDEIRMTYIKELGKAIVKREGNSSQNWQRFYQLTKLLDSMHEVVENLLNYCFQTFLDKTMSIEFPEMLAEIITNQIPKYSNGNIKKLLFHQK
# HEK293 cells = experiment: HEK293 viability assay (ATPlite 1step); assay type: cell-based, human; conditions: non-transfected HEK293, 24 h, ATP level; Trial 2; Low = activity too low for exact value
# Method: The non-transfected HEK293 cells were seeded to the 384-well plates at 5000 cell/well, compounds were added and the timing of all subsequent steps was exactly the same as in the reporter assays. […] After 24 h of compound incubation with cells, the viability of cells was measured by determining the ATP level in the samples using luciferase cell viability assay, ATPlite 1step (Perkin Elmer, USA).
# [1] = Table 8, second library, read-out: ERβ agonism EC50
# [2] = HEK293, 24 hours, Trial 2 (believed more reliable), low = activity detected but too low for exact value
Molecule,EC50 (Human full-length ERα) [µM],EC50 (Human full-length ERβ; [1]) [µM],agonistic or antagonistic activities on GR (Human full-length GR),also measured
CCCCCC[C@H](O)C12CCC(c3ccc(O)cc3)(CC1)CC2 [Compound 28],> 10,4.12,,
CCCCCC[C@@H](O)C12CCC(c3ccc(O)cc3)(CC1)CC2 [Compound 29],> 10,> 10,,
"CCCc1c(-c2ccc(O)cc2)nn(-c2ccc(O)cc2)c1-c1ccc(O)cc1 [PPT, Propyl pyrazole triol, reference compound]",,,,"ERα Efficacy (Human full-length ERα; HEK293, 24 hours, Trial 2): 101; ERβ EC50 (nM) (Human full-length ERβ; [2]): low; ERβ Log(EC50) (Human full-length ERβ; [2]): low"
CCCCCC[C@H](O)C1C2CC3CC1CC(c1ccc(O)cc1)(C3)C2 (stereo partly drawn) [Compound 30],> 10,> 10,,
"N#CC(Cc1ccc(O)cc1)c1ccc(O)cc1 (stereo not drawn) [DPN, Diarylpropionitrile]",,,no agonistic or antagonistic activities,agonistic or antagonistic activities on AR (Human full-length AR): no agonistic or antagonistic activities; HEK293 viability IC50 (μM) (HEK293 cells): Low
CCCCCC[C@H](O)C1CCC(c2ccc(O)cc2)CC1 (stereo partly drawn) [Compound 27],> 10,> 10,,
"C[C@]12CC[C@@H]3c4ccc(O)cc4CC[C@H]3[C@@H]1CC[C@@H]2O [Compound E2, Estradiol, reference compound]",,,no agonistic or antagonistic activities,HEK293 viability IC50 (μM) (HEK293 cells): Low
CCCCCC[C@H](O)c1ccc(-c2ccc(O)cc2)cc1 [Compound 26],> 10,> 10,,
"1-(4-hydoxyphenyl)-12-(1-hydroxyheptyl)-1,12-dicarba-closo-dodecaborane [Compound 06]",,,no agonistic or antagonistic activities,"ERβ Efficacy (Human full-length ERβ; HEK293, 24 hours, Trial 2): 100 and 103; ERβ Log(EC50) (Human full-length ERβ; [2]): −7.71 and −7.76; EC50 (Human full-length ERβ; HEK293, 24 hours, Trial 2 (believed more reliable), low = activity detected but too low for exact value, read-out: ERβ EC50): 0.019 µM and 0.017 µM; EC50 (Human full-length ERβ; text of Example 19, luciferase reporter-based cell assay in HEK cells, read-out: EC50 at ERβ): 0.005 µM; IC50 (HEK293 cells): 18 µM and 17 µM"

# Source: patent publication US20250281515A1, “CARBORANE COMPOUNDS, CARBORANE ANALOGS, AND METHODS OF USE THEREOF” (Ohio State Innovation Foundation, priority 2018, published 2025)
